From patent US11723947B2, “Anti-senescence compounds and uses thereof” (Erasmus University Medical Center Rotterdam, priority 2015, dated 2023)
Square brackets hold non-standard residues; d marks the D form. Ends that are not written are not given here.

Experiments:
LOX-IMVI = assay: Viability of LOX-IMVI metastatic melanoma cells; assay type: cell-based, human
Method: Assay as in FIG. 2C with increasing doses of Vemurafenib. […] LOX-IMVI however is resistant. […] Experiment as in FIG. 2C, but with LOX-IMVI treated with FOXO4 DRI alone, the BRAF^V600E-inhitors Vemurafenib or Dabrafenib, or the MEK inhibitor Trametinib alone, or a combination hereof. […] LOX-IMVI cells were incubated with FOXO4 DRI or Vemurafenib alone or in combination. The cells were co-treated with the pan-caspase inhibitor QVD-OPH to block caspase-dependent cell death. After 3 days the media was refreshed with new QVD-OPH containing media, but in the absence of FOXO4 DRI or Vemurafenib. At day 5 after initial treatment the cells were fixed and stained for Cytochrome C. Cytochrome C is present in the mitochondria in viable cells and is released into the cytosol when apoptosis is activated. Plotted are the number of cells showing release of Cytochrome C. […] LOX-IMVI were assessed for viability in the presence of FOXO4 DRI, the oxidative stress inhibitor N-Acetyl Cysteine (NAC) or the oxidative stressor H2O2. […]
LOX-IMVI cells were plated for (i) cell viability assay as in example 1 by AqueousOne MTT assay, (ii) apoptosis by Cytochrome C release, (iii) longitudinal cell density assay, and incubated with the FOXO4 DRI peptide, Vemurafenib/Trametinib, or their combination, respectively. […] The % of cells with Cytochrome C release was scored.

[1] = test system: Senescent and control IMR90
Method: The selectivity index (S.I.) for the EC50 values was determined after […] (GraphPad Prism) of the curves. […] Real-time cell density was measured using an xCELLigence detection system (ACEA Biosciences). Prior to the start of the measurement 50 μL DMEM 10% FCS was added to each well of an E-plate view 16 (Roche) to determine background signal. Non-senescent (2000 cells per well) and senescent (5000 cells/well) IMR90 fibroblasts were then plated in 150 μl medium. 16 hours later the E-plate was placed in the xCELLigence reader and the cell density was recorded every 30 minutes. […] Measurements continued for the indicated time-points. […] Experiment as in FIG. 2C, but with the indicated peptides. […] Cells were plated in 4-well Poly-L-Lysine coated glass bottom 35 mm dishes (D141410; Matsumi, Japan) and incubated with NucView488 Caspase-3 (4440; Essen Bioscience). […] 8h after addition the real-time imaging was initiated and every 30 min a grid of 3×3 pictures was imaged. The imaging continued for another 6 days and the images were concatenated using Zen imaging software. […] After 6 days cell viability was determined as in FIG. 2C). […] Experiment as in FIG. 2C, but according to the indicated treatment plan. Instead of one single dose, three doses were given (one day in between) of ⅓ that concentration each time. […] Left: Experiment as in FIG. 2C, but on cells pretreated once daily for two days with IL-1α Receptor Antagonist (RA), which blocks IL-1α/β signaling, recombinant IL-6 and recombinant IL-1α/β. […] Right: Similar experiment as in the left panel, except viability measured one day earlier. […] In senescent cells p53 signaling causes upregulation of the cell-cycle arrest and pro-survival protein p21Cip1. […] Experiment as in FIG. 2K. […] Experiment as in FIG. 2c, but with control and senescent IMR90 stable transduced with shRNAs against p53 or a control shRNA (shGFP).
A) Control IMR90 and IMR90 induced to senesce through 10Gy IR were plated in triplicate for each condition in a 96-well plate. […] After 6 days viability was determined through AqeousOne celltiter assay (Promega) according to the manufacturer's instructions.
Non-senescent (=“normal”, proliferating) IMR90 cells (ATCC #CCL-186, a diploid primary human fibroblast adherent cell line derived from fetal lung tissue) were irradiated with 10Gy Gamma-IR (IR=irradiation). After 7 days these cells are senescent and can be used for experiments comparing them to their non-irradiated (=non-senescent) counterparts. Senescent and non-senescent IMR90 fibroblasts were plated for longitudinal cell density measurement using the xCELLigence system (ACEA Biosciences, Inc., San Diego, Calif.).
(§1) 5000 senescent (obtained as described above) and 2000 non-senescent IMR90 fibroblasts were plated in 96-well plates incubated with concentrations of NQDI between 0-20 μM and after 6 days cell viability was determined by AqueousOne CellTiter (MTT) assay according to the manufacturer's instructions.
as §1, with “R406, ranging from 16, 32, 64 to 128 nM” for “NQDI between 0-20 μM”
Normal human IMR90 fibroblasts were exposed to 10 Gy Ionizing Radiation or treated 3× (bidaily) with 0.5 μM Doxorubicin. Seven days later they were processed for SA-β-Gal staining to visualize senescent cells. […] DAPI was used as a counterstain to visualize nuclei. […] After 6 days the cell viability was determined using an AqueousOne Celltiter (MTT) assay according to the manufacturer's instructions.

[2] = test system: senescent and non-senescent IMR90 fibroblasts; assay: Real-time cell density, xCELLigence, senescent and non-senescent IMR90 fibroblasts; assay type: cell-based, human; conditions: 2 μM on three consecutive days (24, 48 and 72 h)
Method: Measurements continued for the indicated time-points. […] Experiment as in FIG. 2K.
Cell density after time of plating was followed. […] NQDI is apparently rather safe even at high doses as as non-senescent cells are not affected by 20 uM NQDI.

[3] = test system: fast aging Xpd^TTD/TTD mice; assay: Healthspan, organ function and blood parameters of fast aging Xpd^TTD/TTD and wildtype mice; assay type: in vivo, mouse; conditions: 5 mg/kg i.v. day 0, 2 and 4, end of experiment

## CC(C)(C)c1nc(-c2cccc(NS(=O)(=O)c3c(F)cccc3F)c2F)c(-c2ccnc(N)n2)s1 [Dabrafenib]
LOX-IMVI; single agent
  LOX-IMVI viability, agent on its own: do not markedly affect LOX-IMVI viability

## OO [H2O2]
LOX-IMVI; FOXO4 DRI or H2O2 alone
  LOX-IMVI viability, individually: only marginally influenced LOX-IMVI viability

## CCOC(=O)c1c2c3c(cccc3[nH]c1=O)C(=O)c1ccccc1-2 [NQDI, 2,7-Dihydro-2,7-dioxo-3H-naphtho[1,2,3-de]quinoline-1-carboxylic acid ethyl ester]
[1]; 0-20 μM, 6 days
  % viability over Mock, senescent and non-senescent IMR90: clearly reduces cell viability in senescent, but not non-senescent IMR90 fibroblasts
[1]; 20 uM
  effect on non-senescent cells at high dose: not affected
[2]
  cell density, sequential rounds: enhance its effectivity towards senescent cell clearance

## [dL][dT][dL][dR][dK][dE][dP][dA][dS][dE][dI][dA][dQ][dS][dI][dL][dE][dA][dY][dS][dQ][dN]G[dW][dA][dN][dR][dR][dS]GG[dK][dR][dP][dP][dP][dR][dR][dR][dQ][dR][dR][dK][dK][dR]G [FOXO4 DRI]
[3]
  toxicity to the hematopoietic system (blood parameters): does not induce toxicity to the hematopoietic system
[1]
  toxicity to non-senescent cells: proved to be safe to non-senescent cells
